{
  "source": "patent US11471387B2",
  "about": "“Oral cavity care method and oral cavity care system” (priority 2017, dated 2022)",
  "key": {"[1]": {"test_system": "tissue cells (FIGS. 6B, 6D)", "assay": "Safety test, survival rate of tissue cells (FIGS. 6B and 6D)"}, "[2]": {"test_system": "tissue cells (FIGS. 6A, 6C)", "assay": "Safety test, survival rate of tissue cells (FIGS. 6A and 6C)"}},
  "data": [
    {"smiles": "[H]/N=C(\\N/C(=N/[H])NCCCCCCNC(=N)NC(=N)Nc1ccc(Cl)cc1)Nc1ccc(Cl)cc1", "note": "[chlorhexidine]", "values": [
      {"measurement": "50% survival rate of tissue cells (time)", "setting": "[1]; FIG. 6B", "result": 8.4, "unit": "h"},
      {"measurement": "cytotoxicity with time", "setting": "[1]; tissue cells of FIGS. 6B/6D", "result": "cytotoxic with time"},
      {"measurement": "50% survival rate of tissue cells (time)", "setting": "[2]; FIG. 6A", "result": 10.8, "unit": "h"},
      {"measurement": "cytotoxicity with time", "setting": "[2]; tissue cells of FIGS. 6A/6C", "result": "cytotoxic with time"}
    ]}
  ]
}
